From ChEMBL document CHEMBL1130526, “Amide surrogates of matrix metalloproteinase inhibitors: Urea and sulfonamide mimics” (Bioorg Med Chem Lett, 1997)

Tests used:
Interstitial collagenase = molecular target: T1, Interstitial collagenase (Homo sapiens, UniProt P03956); test: Inhibition of Matrix metalloprotease-1 (MMP-1)
T1 sequence (P03956 whole entry): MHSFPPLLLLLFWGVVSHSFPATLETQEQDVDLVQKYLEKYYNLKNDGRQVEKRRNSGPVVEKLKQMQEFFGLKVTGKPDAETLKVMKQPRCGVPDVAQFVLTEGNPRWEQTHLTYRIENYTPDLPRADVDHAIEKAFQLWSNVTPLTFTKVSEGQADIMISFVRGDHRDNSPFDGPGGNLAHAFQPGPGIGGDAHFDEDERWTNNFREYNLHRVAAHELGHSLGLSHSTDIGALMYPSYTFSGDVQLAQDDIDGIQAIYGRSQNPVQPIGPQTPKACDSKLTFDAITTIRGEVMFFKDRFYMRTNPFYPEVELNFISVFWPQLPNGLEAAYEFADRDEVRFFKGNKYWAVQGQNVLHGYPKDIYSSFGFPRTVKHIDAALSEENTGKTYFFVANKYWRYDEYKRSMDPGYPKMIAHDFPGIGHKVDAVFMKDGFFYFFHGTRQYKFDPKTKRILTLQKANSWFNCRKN

[1] = molecular target: 72 kDa type IV collagenase (Homo sapiens, UniProt P08253); test: Inhibition of Matrix metalloprotease-2 (MMP-2)
[2] = molecular target: Matrix metalloproteinase-9 (Homo sapiens, UniProt P14780); test: Inhibition of Matrix metalloprotease-9
Stromelysin-1 [3] = molecular target: T2, Stromelysin-1 (Homo sapiens, UniProt P08254); test: Inhibition of Matrix metalloprotease-3 (MMP-3)
Target sequence in this assay (P08254 whole entry): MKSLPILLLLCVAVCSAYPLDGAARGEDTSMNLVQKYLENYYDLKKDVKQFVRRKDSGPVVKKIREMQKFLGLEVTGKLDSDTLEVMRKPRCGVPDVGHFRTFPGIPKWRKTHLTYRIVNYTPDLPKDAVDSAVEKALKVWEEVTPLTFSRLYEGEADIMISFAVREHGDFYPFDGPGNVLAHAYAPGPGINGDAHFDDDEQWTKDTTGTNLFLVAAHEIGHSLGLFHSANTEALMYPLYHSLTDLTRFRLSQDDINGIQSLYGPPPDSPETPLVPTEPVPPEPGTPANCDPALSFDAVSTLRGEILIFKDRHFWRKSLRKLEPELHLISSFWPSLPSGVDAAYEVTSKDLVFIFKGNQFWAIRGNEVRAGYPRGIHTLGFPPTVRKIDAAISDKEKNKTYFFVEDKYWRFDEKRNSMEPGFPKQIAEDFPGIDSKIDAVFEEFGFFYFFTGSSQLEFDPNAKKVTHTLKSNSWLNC

Stromelysin-1 [4] = molecular target: T2, Stromelysin-1; test: Inhibition of Matrix metalloprotease-3 (MMP-3) at 50 uM
Target sequence in this assay (P08254 100-477 limits assumed): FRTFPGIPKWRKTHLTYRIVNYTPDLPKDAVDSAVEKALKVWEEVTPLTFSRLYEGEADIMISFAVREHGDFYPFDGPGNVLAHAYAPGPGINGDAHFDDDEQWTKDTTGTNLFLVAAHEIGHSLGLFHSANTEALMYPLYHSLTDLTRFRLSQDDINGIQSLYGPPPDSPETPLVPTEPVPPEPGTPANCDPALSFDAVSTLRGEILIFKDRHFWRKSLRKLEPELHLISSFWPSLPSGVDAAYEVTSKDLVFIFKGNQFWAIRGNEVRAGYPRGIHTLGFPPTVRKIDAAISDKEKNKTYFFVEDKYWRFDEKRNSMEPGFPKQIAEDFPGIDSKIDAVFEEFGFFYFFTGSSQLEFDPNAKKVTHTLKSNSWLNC

Sequence of Matrix metalloproteinase-9 (P14780 whole entry): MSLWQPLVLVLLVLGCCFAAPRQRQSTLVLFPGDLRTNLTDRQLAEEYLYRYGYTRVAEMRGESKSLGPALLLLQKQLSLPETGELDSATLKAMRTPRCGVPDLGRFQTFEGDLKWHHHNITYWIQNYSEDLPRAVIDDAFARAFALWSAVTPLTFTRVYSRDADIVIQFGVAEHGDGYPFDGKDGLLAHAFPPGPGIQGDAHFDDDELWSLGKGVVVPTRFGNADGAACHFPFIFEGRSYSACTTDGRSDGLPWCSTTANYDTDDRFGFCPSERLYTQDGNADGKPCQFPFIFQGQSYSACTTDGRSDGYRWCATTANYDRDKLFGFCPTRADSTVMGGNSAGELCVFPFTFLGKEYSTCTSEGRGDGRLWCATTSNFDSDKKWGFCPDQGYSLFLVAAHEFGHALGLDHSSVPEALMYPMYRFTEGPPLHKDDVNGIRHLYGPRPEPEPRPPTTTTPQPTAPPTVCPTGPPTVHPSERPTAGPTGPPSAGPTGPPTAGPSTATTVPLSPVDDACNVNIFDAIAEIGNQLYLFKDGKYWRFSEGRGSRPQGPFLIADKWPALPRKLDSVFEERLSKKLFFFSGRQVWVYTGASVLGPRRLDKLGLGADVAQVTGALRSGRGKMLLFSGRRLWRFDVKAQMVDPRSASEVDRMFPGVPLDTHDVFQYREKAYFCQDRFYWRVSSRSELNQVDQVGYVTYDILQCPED
Sequence of 72 kDa type IV collagenase (P08253 whole entry): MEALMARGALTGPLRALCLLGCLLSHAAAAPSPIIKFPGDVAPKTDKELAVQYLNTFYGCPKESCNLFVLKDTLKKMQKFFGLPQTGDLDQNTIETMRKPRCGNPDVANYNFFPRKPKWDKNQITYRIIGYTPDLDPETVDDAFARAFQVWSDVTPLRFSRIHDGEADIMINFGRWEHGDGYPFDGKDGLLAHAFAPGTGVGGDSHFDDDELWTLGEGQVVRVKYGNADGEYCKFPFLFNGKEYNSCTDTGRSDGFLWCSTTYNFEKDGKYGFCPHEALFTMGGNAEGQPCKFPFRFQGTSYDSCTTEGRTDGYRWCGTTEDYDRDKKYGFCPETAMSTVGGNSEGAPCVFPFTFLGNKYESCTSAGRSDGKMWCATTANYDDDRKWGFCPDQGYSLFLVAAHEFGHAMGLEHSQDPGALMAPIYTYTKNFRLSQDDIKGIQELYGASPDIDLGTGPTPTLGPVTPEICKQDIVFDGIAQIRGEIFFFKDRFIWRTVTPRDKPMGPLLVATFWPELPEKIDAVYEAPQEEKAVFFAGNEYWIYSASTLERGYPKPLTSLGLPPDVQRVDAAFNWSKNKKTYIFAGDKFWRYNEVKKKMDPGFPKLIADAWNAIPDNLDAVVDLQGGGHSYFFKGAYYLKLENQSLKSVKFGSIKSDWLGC

SMILES	Ki (Interstitial collagenase) [µM]	Ki [1] [µM]	Ki [2] [µM]	Ki (Stromelysin-1 [3]) [µM]	inhibition (Stromelysin-1 [4]) [%]
CNC(=O)[C@H](Cc1ccc(OC)cc1)NS(=O)(=O)C(CC(=O)NO)CC(C)C (stereo not given in full)	0.77	0.62	0.62	4.1	–
CNC(=O)[C@H](Cc1ccc(OC)cc1)NC(=O)[C@@H](CC(=O)NO)CC(C)C	–	–	< 0.01	< 0.01	–
CNC(=O)[C@H](Cc1ccc(OC)cc1)NC(=O)[C@@H](CC(=O)O)CC(C)C	0.336	0.86	0.184	29.4	–
CNC(=O)[C@H](Cc1ccc(OC)cc1)NS(=O)(=O)C(CCc1ccccc1)CC(=O)NO (stereo not given in full)	0.64	0.55	1.5	2.2	–

Second part, the compound after the results:

Ki (Interstitial collagenase) [µM]	Ki [1] [µM]	Ki [2] [µM]	Ki (Stromelysin-1 [3]) [µM]	inhibition (Stromelysin-1 [4]) [%]	SMILES
> 50	3	19.2	19.1	–	CNC(=O)[C@H](Cc1ccc(OC)cc1)NS(=O)(=O)C(CC(=O)O)CC(C)C (stereo not given in full)
11.2	1.3	0.29	–	10	CCCCCCC(CC(=O)O)S(=O)(=O)N[C@@H](Cc1ccc(OC)cc1)C(=O)NC (stereo not given in full)
22.4	5.3	9.9	–	10	CNC(=O)[C@H](Cc1ccc(OC)cc1)NS(=O)(=O)C(CCc1ccccc1)CC(=O)O (stereo not given in full)
2.3	0.43	0.21	4	–	CCCCCCC(CC(=O)NO)S(=O)(=O)N[C@@H](Cc1ccc(OC)cc1)C(=O)NC (stereo not given in full)
